Article PMC7409197, “Adenosine Receptors as Neuroinflammation Modulators: Role of A1 Agonists and A2A Antagonists” (Cells, 2020)

Experiments:
Type in all cases: cell-based, rat
[1] = test system: mixed glial cells; test: CellTiter 96 AQueous One (MTS) cell viability, ligands alone, mixed glial cells
Experimental: (§1) Newborn male Wistar rats were sacrificed and mixed glial cell cultures were obtained from the cerebral cortices. Cerebral cortices were dissected, and meninges were cleared away. Tissues were treated with trypsin solution (trypsin 0.05% (w/v) trypsin-EDTA 5 mM) for 25 min at 37 °C. The tissue was fully disaggregated by pipetting and the dissociated cells were seeded in a 6-well plate with Dulbecco’s modified Eagle’s/High glucose medium enriched with 100 U/mL penicillin, 100 µg/mL streptomycin and 10% FBS. Fresh medium was changed the next day and then every 3 days decreasing the quantity of FBS. All experiments were carried out after 7–9 days of plating.
(§2) Mixed glial cell cultures were divided into 2 groups, one to study A1AR partial agonists and another for A2AAR antagonists. Cells from the first group were pre-treated with 2 µL at three different concentrations of C1 for 15, 30 or 60 min and then with further addition of a pro-inflammatory cocktail of cytokines (TNF-α, 20 ng/mL; IL-1β, 20 ng/mL; IFN-γ 20 ng/mL) for 48 h. […] To study C2 cells were pre-treated with the same CK cocktail for 48 h and then with 2 µL of C2 at three different concentrations for 15, 30, or 60 min (Scheme 1). ZM241385, a well known A2AAR antagonist, was used as reference compound. Furthermore, ligands and CK were tested alone for 15, 30 or 60 min and 48 h respectively.
(§3) 1.7 × 10^4 mixed glial cells were cultured in 98 μL of the specific medium in a 96 well plate overnight. The next day 2 μL of ligand or CK cocktail were added to the well. After all treatments, 20 µL of CellTiter 96® AQueous One Solution Reagent was added in a final volume of 100 µL. Absorbance was read at 490 nm using the plate reader GENiosPro. Cell viability was calculated as percentage using the following formula: Cell viability =OD mean of treated cells/OD mean of control cells × 100

[2] = test system: mixed glial cells; test: MTS cell viability in cytokine cocktail (CK) inflammatory model, mixed glial cells
Experimental: as §1, §2, §3

[3] = test system: mixed glial cells; test: Griess assay (nitrite production) in mixed glial cells; conditions: 10 nM, 30 min, after CK cocktail
Experimental: To test the antioxidant capacity of these new molecules Griess assay was performed. The Griess Reagent System is based in the conversion of sulphanilamide into an azo-compound with the presence of N-1-napthylenediamide dihydrochloride (NED) under acidic condition. 1.7 × 10^4 mixed glial cells were cultured in 98 μL of the specific medium in a 96 well plate overnight. After 24 h the media from each well of the cell culture was transferred into a 96 well plate and then 50 µL of the sulphanilamide solution was added to each well. After 5–10 min of incubation at room temperature (rt), 50 µL of the NED Solution were dispensed to all wells and they were incubated at rt for other 5–10 min. Absorbance was measured within 30 min in the plate reader GENiosPro with a filter between 520 nm and 550 nm. This experiment was performed 3–5 replicates. Concentration of NO¬¬¬¬2¯ in each sample was determined by comparison to a Nitrite standard reference curve.

| Structure (SMILES) | cell viability vs. control ([1]; ligand alone, 10 nM, time not stated at the place (highest effect at 30 min)) | cell viability vs. control ([2]; CK cocktail 20 ng/mL 48 h, then ligand 10 nM for 30 min) | nitrite levels in presence of CK cocktail [3] | cell viability vs. control ([1]; ligand alone, 5, 10, 60 nM, 15, 30, 60 min) | prevention of CK aggression (cell viability, words) ([2]; pre-treatment before CK cocktail 48 h, C1 2-30 µM, CCPA 10 nM 30 min) |
| --- | --- | --- | --- | --- | --- |
| Nc1nc(NCCc2ccc(O)cc2)nc2nc(-c3ccco3)nn12 [ZM241385, reference compound] | 135 ± 3.5% | 136 ± 1.7% | able to decrease NO¬¬¬¬2¯ levels induced by CK more than the well know ZM241385 | – | – |
| OC[C@H]1O[C@@H](n2cnc3c(NC4CCCC4)nc(Cl)nc32)[C@H](O)[C@@H]1O [CCPA, 2-chloro-N^6-cyclopentyladenosine, reference compound] | – | – | – | did not change cell viability significantly | prevent the CK aggression |
